Publication PMC11345399 (The Journal of Biological Chemistry, 2024)
Where “and” joins values, the source holds several entries; their conditions need not be identical. Equal values may be shown once. Read-outs that look alike come from different tables or passages of the source. Marks after values point to notes of the source that are not given here.

Assays:
[1] = biological target: T1, SARS-CoV-2 RdRp complex (Severe acute respiratory syndrome coronavirus 2, UniProt P0DTD1); conditions: cited from earlier work; for Km: previously reported
[2] = biological target: T2, MERS-CoV RdRp complex (Middle East respiratory syndrome-related coronavirus, UniProt K9N7C7)
[3] = biological target: T3, LASV RdRp (Mammarenavirus lassaense, UniProt Q6GWS2); conditions: cited from earlier work
[4] = biological target: T4, influenza B RdRp (Influenza B virus, UniProt Q5V8Y6); assay type: biochemical
[5] = biological target: EV-71 RdRp (3Dpol) (Enterovirus A71, UniProt E5RPG3)
[6] = biological target: PIV-5 RdRp complex (Parainfluenza virus 5, UniProt Q88434)
[7] = biological target: T5, RSV RdRp complex (Human respiratory syncytial virus A, UniProt P28887); conditions: cited from earlier work
[8] = tested on: SARS-CoV RdRp complex; conditions: cited from earlier work
[9] = biological target: T6, human mitochondrial RNA polymerase (h-mtRNAP) (Homo sapiens, UniProt O00411); assay type: biochemical
[10] = biological target: T5, RSV RdRp complex
[11] = biological target: HMPV RdRp complex (Human metapneumovirus, UniProt Q6WB93)
[12] = biological target: HRV-16 RdRp (3Dpol) (Human rhinovirus 16, UniProt Q82122)
[13] = biological target: T2, MERS-CoV RdRp complex; conditions: cited from earlier work
[14] = biological target: HPIV-3 RdRp complex (Human parainfluenza 3 virus, UniProt P12577)
[15] = biological target: T3, LASV RdRp
[16] = biological target: T6, human mitochondrial RNA polymerase (h-mtRNAP); conditions: cited from earlier work
[17] = biological target: T4, influenza B RdRp; conditions: cited from earlier work
[18] = tested on: EV-71 RdRp; assay type: biochemical
[19] = biological target: T1, SARS-CoV-2 RdRp complex
[20] = biological target: HPIV-3 RdRp (Human parainfluenza 3 virus, UniProt P12577); assay type: biochemical
[21] = biological target: HMPV RdRp (Human metapneumovirus, UniProt Q6WB93); assay type: biochemical
[22] = biological target: PIV-5 RdRp (Parainfluenza virus 5, UniProt Q88434); assay type: biochemical
[23] = biological target: T7, HRV-16 RdRp (Human rhinovirus 16, UniProt Q82122); assay type: biochemical
[24] = tested on: EV-71 RdRp; assay type: biochemical; remark: listed apart in the source
[25] = biological target: T7, HRV-16 RdRp; assay type: biochemical; remark: listed apart in the source
[26] = biological target: SARS-CoV-2 RdRp (Severe acute respiratory syndrome coronavirus 2, UniProt P0DTD1); assay type: biochemical
[27] = biological target: MERS-CoV RdRp (Middle East respiratory syndrome-related coronavirus, UniProt K9N7C7); assay type: biochemical
[28] = biological target: RSV RdRp (Human respiratory syncytial virus A, UniProt P28887); assay type: biochemical
[29] = tested on: N#C[C@@]1(c2ccc3c(N)ncnn23)O[C@H](COP(=O)(O)OP(=O)(O)OP(=O)(O)O)[C@@H](O)[C@H]1O; experiment: purified protein, by the assay type; conditions: pH 8.0
[30] = tested on: Nc1ncnc2c1ncn2[C@@H]1O[C@H](COP(=O)(O)OP(=O)(O)OP(=O)(O)O)[C@@H](O)[C@H]1O; experiment: purified protein, by the assay type; conditions: pH 8.0
[31] = SARS-CoV-2 RdRp, ref Gordon et al. ([45])

T6 sequence (O00411 42-1230 limits assumed): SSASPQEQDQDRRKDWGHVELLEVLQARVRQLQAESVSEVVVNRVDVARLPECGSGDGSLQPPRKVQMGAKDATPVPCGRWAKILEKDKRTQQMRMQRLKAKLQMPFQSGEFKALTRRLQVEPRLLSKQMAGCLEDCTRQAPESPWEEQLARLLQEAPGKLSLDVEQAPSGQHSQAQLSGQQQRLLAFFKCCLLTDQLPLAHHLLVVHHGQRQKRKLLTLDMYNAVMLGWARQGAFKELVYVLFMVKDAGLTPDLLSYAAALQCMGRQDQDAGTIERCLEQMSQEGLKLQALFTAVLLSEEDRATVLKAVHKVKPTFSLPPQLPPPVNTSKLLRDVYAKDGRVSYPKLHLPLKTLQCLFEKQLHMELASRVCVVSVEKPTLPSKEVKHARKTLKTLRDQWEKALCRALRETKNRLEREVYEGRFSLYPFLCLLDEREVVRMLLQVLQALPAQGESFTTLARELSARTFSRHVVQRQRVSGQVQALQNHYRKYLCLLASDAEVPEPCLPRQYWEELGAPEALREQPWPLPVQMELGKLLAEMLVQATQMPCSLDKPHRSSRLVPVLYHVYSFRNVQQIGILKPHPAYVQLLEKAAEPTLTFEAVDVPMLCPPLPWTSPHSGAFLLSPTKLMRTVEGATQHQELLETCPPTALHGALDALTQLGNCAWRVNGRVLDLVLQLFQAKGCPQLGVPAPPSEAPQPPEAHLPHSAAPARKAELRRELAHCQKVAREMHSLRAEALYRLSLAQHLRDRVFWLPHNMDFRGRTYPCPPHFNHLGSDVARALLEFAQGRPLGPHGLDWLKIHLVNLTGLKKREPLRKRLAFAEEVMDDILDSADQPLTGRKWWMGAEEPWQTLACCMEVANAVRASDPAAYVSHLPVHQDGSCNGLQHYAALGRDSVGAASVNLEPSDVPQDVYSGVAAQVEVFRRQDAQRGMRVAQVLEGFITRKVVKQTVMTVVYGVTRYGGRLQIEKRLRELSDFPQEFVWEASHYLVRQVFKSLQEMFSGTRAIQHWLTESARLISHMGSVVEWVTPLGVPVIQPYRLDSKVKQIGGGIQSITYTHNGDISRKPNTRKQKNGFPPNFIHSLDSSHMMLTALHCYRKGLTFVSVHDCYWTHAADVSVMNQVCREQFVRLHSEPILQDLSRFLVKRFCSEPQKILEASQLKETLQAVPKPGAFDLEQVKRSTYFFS

## Nc1ncnc2c1ncn2[C@@H]1O[C@H](COP(=O)(O)OP(=O)(O)OP(=O)(O)O)[C@@H](O)[C@H]1O [ATP]
[1]; [31]
  Km: 0.03 ± 0.003 µM
[2]
  Vmax (product fraction): 0.84 ± 0.0090
[3]
  Km: 0.11 ± 0.02 µM
  Vmax (product fraction): 0.57 ± 0.032
[4]
  Vmax (product fraction): 0.68 ± 0.014
[5]
  Vmax (product fraction): 0.96 ± 0.021
[6]
  Vmax (product fraction): 0.74 ± 0.026
[7]
  Km: 0.17 ± 0.023 µM
  Vmax (product fraction): 0.76 ± 0.022
[8]
  Km: 0.03 ± 0.003 µM
  Vmax (product fraction): 0.73 ± 0.017
[9]
  Km: 0.096 ± 0.0091 µM
  Vmax (product fraction): 0.93 ± 0.026
[10]
  Vmax (product fraction): 0.61 ± 0.065
[11]
  Vmax (product fraction): 0.60 ± 0.024 and 0.39 ± 0.028
[12]
  Vmax (product fraction): 0.90 ± 0.017
[13]
  Km: 0.017 ± 0.019 µM
  Vmax (product fraction): 0.47 ± 0.011
[14]
  Vmax (product fraction): 0.63 ± 0.025
[15]
  Vmax (product fraction): 0.80 ± 0.0037
[16]
  Km: 0.05 ± 0.0037 µM
  Vmax (product fraction): 0.98 ± 0.018
[17]
  Vmax (product fraction): 0.73 ± 0.014

## N#C[C@@]1(c2ccc3c(N)ncnn23)O[C@H](COP(=O)(O)OP(=O)(O)OP(=O)(O)O)[C@@H](O)[C@H]1O [GS-443902]
[1]; [31]
  Km: 0.0089 ± 0.002 µM
  Selectivity (fold), Vmax/Km ATP over Vmax/Km analog: 0.28 ^d fold
[1]
  Vmax (product fraction): 0.74 ± 0.023
[18]
  Pattern of inhibition of RNA primer extension after incorporation at position i: intermediate product at position “i + 3”
  Vmax (product fraction) of UTP incorporation at i + 1: 0.48 ± 0.005
[2]
  Vmax (product fraction): 0.90 ± 0.012
[3]
  Km: 1.3 ± 0.18 µM
  Selectivity (fold), Vmax/Km ATP over Vmax/Km analog: 20 ^d fold
  Vmax (product fraction): 0.35 ± 0.016
[4]
  Vmax (product fraction): 0.18 ± 0.0057
[19]
  Vmax (product fraction): 0.88 ± 0.015
[5]
  Vmax (product fraction): 0.93 ± 0.027 and 0.93 ± 0.019
[6]
  Selectivity (fold), Vmax/Km ATP over Vmax/Km analog: 8.3 fold and 8.31 fold
  Vmax (product fraction): 0.77 ± 0.042 and 0.69 ± 0.013
[7]; RSV RdRp, ref Tchesnokov et al. ([47])
  Selectivity (fold), Vmax/Km ATP over Vmax/Km analog: 2.7 fold and 2.73 ^e fold
[7]
  Km: 0.5 ± 0.089 µM
  Vmax (product fraction): 0.82 ± 0.027
[20]
  Vmax (product fraction) of UTP incorporation at i + 1: 0.58 ± 0.011
[21]
  Vmax (product fraction) of UTP incorporation at i + 1: 0.28 ± 0.018
[8]
  Km: 0.01 ± 0.0008 µM
  Selectivity (fold), Vmax/Km ATP over Vmax/Km analog: 0.32 ^d fold
  Vmax (product fraction): 0.70 ± 0.015
[9]
  Vmax (product fraction): 0.67 ± 0.22
[22]
  Vmax (product fraction) of UTP incorporation at i + 1: 0.48 ± 0.0089
[10]
  Vmax (product fraction): 0.80 ± 0.059
[11]
  Selectivity (fold), Vmax/Km ATP over Vmax/Km analog: 6.7 fold and 6.71 fold
  Vmax (product fraction): 0.57 ± 0.045 and 0.53 ± 0.027
[12]
  Vmax (product fraction): 0.96 ± 0.015 and 0.80 ± 0.021
[23]
  Inhibition (fold) vs Template A: ~8 fold and 7.8 fold
  UTP: 3.9 µM
[13]
  Km: 0.0063 ± 0.0006 µM
  Selectivity (fold), Vmax/Km ATP over Vmax/Km analog: 0.35 ^d fold
  Vmax (product fraction): 0.50 ± 0.012
[24]
  Inhibition (fold) of UTP incorporation across embedded analog: ~16 fold
[14]
  Selectivity (fold), Vmax/Km ATP over Vmax/Km analog: 7.20 fold
  Vmax (product fraction): 0.63 ± 0.010 and 0.78 ± 0.012
[25]
  Pattern of inhibition of RNA primer extension after incorporation at position i: intermediate product at position “i + 3”
  Vmax (product fraction) of UTP incorporation at i + 1: 0.67 ± 0.015
[15]
  Vmax (product fraction): 0.29 ± 0.091
[16]
  Km: 21 ± 0.096 µM
  Vmax (product fraction): 0.81 ± 0.013
[16]; h-mtRNAP, ref Tchesnokov et al. ([47])
  Selectivity (fold), Vmax/Km ATP over Vmax/Km analog: 503 ^e fold
[26]
  Pattern of inhibition of RNA primer extension after incorporation at position i: intermediate product at position “i + 3”
  Vmax (product fraction) of UTP incorporation at i + 1: 1.13 ± 0.047
[27]
  Vmax (product fraction) of UTP incorporation at i + 1: 0.98 ± 0.018
[17]; FluB RdRp, ref Gordon et al. ([45])
  Selectivity (fold), Vmax/Km ATP over Vmax/Km analog: 68 ^d fold
[17]
  Vmax (product fraction): 0.45 ± 0.0064

## AMP
[18]
  Vmax (product fraction) of UTP incorporation at i + 1: 0.65 ± 0.003
[28]
  Vmax (product fraction) of UTP incorporation at i + 1: 0.70 ± 0.037
[20]
  Vmax (product fraction) of UTP incorporation at i + 1: 0.56 ± 0.0097
[21]
  Vmax (product fraction) of UTP incorporation at i + 1: 0.48 ± 0.026
[22]
  Vmax (product fraction) of UTP incorporation at i + 1: 0.51 ± 0.022
[25]
  Vmax (product fraction) of UTP incorporation at i + 1: 0.76 ± 0.015
[27]
  Vmax (product fraction) of UTP incorporation at i + 1: 1.03 ± 0.016

## EV-71 RdRp (3Dpol) (Enterovirus A71)
[29]
  Km: 0.86 ± 0.081 µM
[30]
  Km: 0.96 ± 0.066 µM

## HMPV RdRp complex (Human metapneumovirus CAN97-83)
[29]
  Km: 42.19 ± 7.79 µM

## HPIV-3 RdRp complex (Human parainfluenza 3 virus (strain NIH 47885))
[29]
  Km: 0.44 ± 0.040 µM
[30]
  Km: 0.061 ± 0.015 µM

## HRV-16 RdRp (3Dpol) (rhinovirus A16)
[29]
  Km: 4.96 ± 0.27 µM
[30]
  Km: 4.52 ± 0.31 µM

## LASV RdRp (Lassa virus Josiah)
[30]
  Km: 0.39 ± 0.075 µM

## MERS-CoV RdRp complex (Betacoronavirus England 1)
[30]
  Km: 0.032 ± 0.0014 µM

## PIV-5 RdRp complex (Simian virus 5 (strain W3))
[29]
  Km: 13 ± 2.3 µM
[30]
  Km: 1.5 ± 0.25 µM

## RSV RdRp complex (Human respiratory syncytial virus A2)
[30]
  Km: 0.97 ± 0.36 µM

## SARS-CoV-2 RdRp complex (Severe acute respiratory syndrome coronavirus 2)
[30]
  Km: 0.057 ± 0.0078 µM
